Results as given in patent US9801844B2, “Methods and compositions for the treatment of cancer” (priority 2012, dated 2017).
Where “and” joins values, the source holds several entries; their conditions need not be identical. Identical values can stand only once. Like-named read-outs stand apart in the source and are kept apart here.

Test system: MDA-MB-468 triple negative breast cancer cells
Experiment: MTT cell proliferation assay on MDA-MB-468 cells
Format: cell-based, human
Conditions: for IC50: read-out: IC50 growth inhibition
Description: MDA-MB-453 (ER negative, Her2 overexpressing), MDA-MB-468 (triple negative) and MCF7 (ER positive, Her2 low) cells, HT29 (p53 positive human colon cancer cells) (ATCC, Manassas, Va.) were grown in Dulbecco's Modified Eagle's medium (DMEM) (Gibco BRL Life Technologies, Inc., Rockville, Md.) containing 10% (v/v) fetal bovine serum (FBS) (Gibco BRL) at 37° C., 5% C02. SUM 149 (Her2 overexpressing, ER low) (the gift of Dr. R. Parsons, Columbia University Medical Center, New York, N.Y.) were cultivated in Ham's F-12 medium with 10% FBS. MCF7 and MCF7/Her2-18 (MCF7 cells transfected with a full length Her2 cDNA coding region, 45-fold increase Her2) were the kind gift of Dr. Dennis Slamon (Los Angeles, Calif.). These cells were maintained in RPMI supplemented with 10% FBS plus glutamine (1%) and PSF (1%) (Gibco, Rockville Md.).
MTT assay: the MTT {3-(4,5-dimethyl-2-thiazol)-2,5-diphenyl-2H tetrazolilum bromide} (Dojindo; Tokyo, Japan) cell proliferation assay system (Roche Diagnostic, Mannheim, Germany) was used to determine the sensitivity of the various cell lines to agents. Cells were seeded at 1×10^4 cells/well in 96-well plates and allowed to attach for 24 h. The medium was replaced with fresh medium containing DMSO or compound. The cells were treated for 96 or 120 h, after which they were incubated with MTT reagents and the absorbance read at 650 and 575 nm. For cell growth assays, the data are expressed as mean+/−standard deviation. Control and treated cells were compared using the student's t-test (p<0.05).
To determine the Combination Index (CI), cells were treated with all combinations of 4 or 5 concentrations of each of the agents tested and a solvent control. The results of the MTT assay were analyzed for possible synergistic effects using the median effect principle. Variable ratios of drugs were employees and mutually exclusive equations were assumed.

[1] = MDA-MB-468 cells, MTT assay, listed as CA

CC(C)c1cc2c(c(O)c1O)[C@@]1(C(=O)O)CCCC(C)(C)[C@@H]1CC2 [carnosic acid]
IC50 (Homo sapiens, MDA-MB-468, MDA-MB-468 cells, MTT assay): 2 µg/mL and 6 µM
viability at 6 µM (Homo sapiens, MDA-MB-468, CA 2 μg/ml (6 μM) alone, read-out: percent viable cells): 89.4%
IC50 growth inhibition [1]: 3 mg/L
IC50 [1]: 9 µM
